Reference: PMC11206913, “Amoebicidal Effect of COVID Box Molecules against Acanthamoeba: A Study of Cell Death” (Pharmaceuticals, 2024)

Experiments:
[1] = tested on: Acanthamoeba castellanii L10 trophozoites; experiment: Comparative label-free proteomics; type: cell-based; settings: IC50, 24 h
Procedure: The proteomic analysis was conducted according to Arbon et al., 2022 [39]. A quantity of 10^6 cells was first incubated with Terconazole at IC50 for 24 h, then treated and untreated cells were centrifuged and washed with PBS. Both groups were prepared in three biological replicates. The assay was conducted as detailed in our previous work. Results were analyzed using STRING free software and GraphPad 9 prism (Supplementary Material File S2).

[2] = tested on: A. polyphaga trophozoites; experiment: Trophocidal activity, alamarBlue assay; type: cell-based; settings: Acanthamoeba polyphaga, read-out: IC50 trophocidal effect
Procedure: (§1) The trophocidal effect of the 160 molecules from the COVID Box was determined using the alamarBlue™ (Life Technologies, Madrid, Spain) assay as previously described with modifications. Briefly, Acanthamoeba castellanii Neff trophozoites were first seeded in triplicate on a 96-well microtiter plate with 99 μL from a stock solution of 5 × 10^4 cells mL^−1. Subsequently, 1 μL of each compound was added to each well to assess the in vitro amoebicidal activity at 10 μM as the final concentration. Finally, 10 µL of alamarBlue™ Cell Viability Reagent (Bioresource, Europe, Nivelles, Belgium) was added into each well. The plates were then incubated for 96 h at 28 °C with a slight agitation. An EnSpire microplate reader (PerkinElmer, Waltham, MA, USA) was used to measure fluorescence at 570/585 nm. Then, the percentage of inhibition value of the tested COVID Box compounds was determined in comparison with the negative control.
(§2) Almitrine and Terconazole were the COVID Box products selected to evaluate the amoebicidal effect against the trophozoite stage of […] strains of Acanthamoeba: A. castellanii Neff, A. griffini, A. polyphaga, A. culbertsoni, and A. castellanii L10. The inhibition concentration 50 (IC50) value was calculated based on the alamarBlue™ assay, as previously mentioned.

[3] = tested on: A. castellanii L10 trophozoites; experiment: Trophocidal activity, alamarBlue assay; type: cell-based; settings: Acanthamoeba castellanii, read-out: IC50 trophocidal effect
Procedure: as §1, §2

[4] = tested on: A. castellanii Neff cysts; experiment: Cysticidal activity, alamarBlue method; type: cell-based; settings: Acanthamoeba castellanii, read-out: IC50 cysticidal effect
Procedure: (§3) Based on the amoebicidal and cytotoxicity results, the selected compounds, Almitrine and Terconazole, were further investigated on the cyst stage of the various Acanthamoeba strains: A. castellanii Neff, A. griffini, A. polyphaga, A. culbertsoni, and A. castellanii L-10. The cysticidal activity was assessed by the alamarBlue™ method, as described previously. Briefly, in a 96-well plate, a serial dilution of the mentioned drugs was first conducted. Later, cysts were resuspended in PYG medium and were added into each well at a concentration of 5 × 10^4 cysts mL^−1. The plates were examined over a week using an inverted microscope. After 7 days of incubation, the plates were centrifuged at 3000 rpm and the medium was replaced with a new PYG. Finally, 10 μL of alamarBlue^TM Cell Viability Reagent (Biosource, Europe, Nivelles, Belgium) was placed into each well, and the plates were incubated at 28 °C with slight agitation. The emitted fluorescence was measured after 144 h.

A. polyphaga cysts = experiment: Cysticidal activity, alamarBlue method; type: cell-based; settings: Acanthamoeba polyphaga, read-out: IC50 cysticidal effect
Procedure: as §3

[5] = tested on: Acanthamoeba culbertsoni trophozoites; experiment: Immunofluorescence staining of tubulin; type: cell-based; settings: IC90, 24 h
Procedure: Immunofluorescence staining of tubulin was performed according to the manufacturer’s staining procedure (Sigma-Aldrich, Madrid, Spain) with slight modifications. Briefly, cells were treated first with Terconazole at IC90. After 24 h of incubation, 50 µL of treated and untreated cell suspensions was placed on a gelatin precoated coverslip for 30 min. Cells were first fixed with formaldehyde (4%) and later permeabilized with Triton (0.3%) for 10 min. Washed with PBS (3X), cells were treated with 5% BSA in PBS 1X/150 mM sucrose for 30 min and washed with glycine 100 mM. At this stage, the trophozoites were incubated with a monoclonal antibody, Anti-α-Tubulin (1:2000), for 2 h at room temperature. Washed twice with PBS, cells were then incubated with the second antibody labeled with Alexa 594 (1:500; from Thermo Fisher Scientific, Rockford, IL, USA) for an hour at room temperature in darkness. Finally, cells were washed with PBS 1X and mounted using mounting medium with DAPI (Sigma-Aldrich; Madrid, Spain). Three-dimensional and maximum projection imaging of the trophozoites was performed by Z-stack imaging using a Leica DMI 4000 B inverted confocal microscope with LAS X software (Leica DMI 4000 B inverted confocal microscope), a 405 nm laser and a 532 nm laser, and a Leica HCX PL Apo 63× Oil Objective.

Naegleria fowleri = tested on: Naegleria fowleri; parameters: method as in PMID 38718717; settings: previous work of the authors; read-out: IC50 against Naegleria fowleri; cited from earlier work
[6] = tested on: Acanthamoeba culbertsoni trophozoites; experiment: Mitochondrial membrane potential, JC-1 dye; type: cell-based; settings: IC90, 24 h
Procedure: (§4) Acanthamoeba culbertsoni cells were incubated with IC90 of Terconazole for 24 h. All mean fluorescence intensities were quantified using EVOS M5000 (Life Technologies, Madrid, Spain), processing three different observations in triplicate using an objective (×40), and images of single cells were obtained by a Leica DMI 4000 B inverted confocal microscope with a 63× objective (Leica Microsystems, Germany). All assays were performed in triplicate.
Based on the JC-1 state and the emitted fluorescence, we distinguished two sets in the cellular population: live cells emit high red fluorescence and affected cells with collapsed mitochondrial membrane potential emit a higher green fluorescence.

Acanthamoeba culbertsoni [7] = experiment: ATP assay, CellTiter-Glo; type: cell-based; settings: IC90, 24 h of treatment
Procedure: as §4
After 24 h of drug treatment, the intracellular ATP content was measured using a CellTiter-Glo Luminescent Cell Viability Assay (Promega, Madison, WI, USA). The experiment was carried out according to the manufacturer’s instructions, and the luminescence intensity was measured in a white 96-well plate using an EnSpire® Multimode Plate Reader.

Acanthamoeba culbertsoni [8] = experiment: Plasma membrane permeability, SYTOX Green; type: cell-based; settings: IC90, 24 h
Procedure: as §4
The effect of the study drug on the cell’s membrane permeability was assessed using specific DNA staining. SYTOX® Green (Molecular Probes, Invitrogen, Madrid, Spain) is a DNA-specific dye impermeable to the cells, whose fluorescence increases 500× upon fixation to the DNA. Briefly, […] trophozoites were incubated for 24 h with IC90 of the drug solution. Subsequently, the SYTOX® Green dye was added at a final concentration of 1 μM for 15 min in the dark.

Acanthamoeba culbertsoni [9] = experiment: Chromatin condensation, Hoechst 33342/PI double stain; type: cell-based; settings: IC90, 24 h
Procedure: as §4
A double-stain apoptosis detection kit (Chromatin Condensation/Dead Cell Apoptosis Kit) with Hoechst 33342 and Propidium Iodide (Invitrogen, Madrid, Spain) were used. The experiment was carried out by following the manufacturer’s recommendations.

[10] = tested on: Acanthamoeba culbertsoni trophozoites; experiment: Actin staining with phalloidin-TRITC; type: cell-based; settings: IC90
Procedure: As in the immunofluorescence staining, cells were first treated with IC90 of Terconazole and fixed with formaldehyde (4%) over a gelatin-precoated coverslip. Later, the cells were permeabilized with Triton (0.1%), followed by a 1 h incubation with phalloidin–tetramethylrhodamine B isothiocyanate (phalloidin-TRITC; Sigma-Aldrich, Madrid, Spain) at room temperature. Cells were finally washed with PBS 1X and mounted using mounting medium with DAPI. Cells were examined by Z-stack imaging using a Leica DMI 4000 B inverted confocal microscope with a 63× objective (Leica Microsystems, Wetzlar, Germany), a 405 nm laser, and a 532 nm laser.

[11] = tested on: Acanthamoeba culbertsoni trophozoites; experiment: ROS generation, CellROX Deep Red staining; type: cell-based; settings: IC90, 24 h
Procedure: as §4
The overproduction of intracellular ROS was measured using the CellROX® Deep red fluorescent probe (Invitrogen, Madrid, Spain).

[12] = tested on: Acanthamoeba culbertsoni trophozoites; experiment: Trophocidal activity, alamarBlue assay; type: cell-based; settings: read-out: IC50 trophocidal effect
Procedure: as §1, §2

A. griffini trophozoites = experiment: Trophocidal activity, alamarBlue assay; type: cell-based; settings: Acanthamoeba griffini, read-out: IC50 trophocidal effect
Procedure: as §1, §2

A. castellanii L10 cysts = experiment: Cysticidal activity, alamarBlue method; type: cell-based, Acanthamoeba castellanii L10; settings: Acanthamoeba castellanii, read-out: IC50 cysticidal effect
Procedure: as §3

[13] = tested on: murine macrophages J774A.1; experiment: Cytotoxicity against murine macrophages, alamarBlue; type: cell-based
Procedure: The cytotoxicity of the COVID Box compounds was evaluated against murine macrophages of the J774A.1 cell line (ATCC TIB-67), as previously described. As mentioned in the trophocidal assay, cells were allowed to adhere on a 96-well plate in 37 °C in a 5% CO2 humidified incubator. Later, a well-defined volume of the compounds was added at an affinal concentration of 10 µM to each well. Fluorescence emitted by the alamarBlue^TM was measured after 24 h of incubation and the percentage inhibition value was determined. The Cytotoxicity Concentration 50 (CC50) value of Almitrine and Terconazole was determined following the same method described previously for the trophocidal effect.

Solubility (remark) = type: physicochemical; settings: reason for discarding

Row | Structure (SMILES) | affected proteins activated [1] | affected proteins downregulated [1] | proteins at least twofold differentially expressed ([1]; of 4566 identified proteins) | IC50 [2] | IC50 [3] | IC50 [4] | IC50 (A. polyphaga cysts) | tubulin network (immunofluorescence) [5] | IC50 (Naegleria fowleri) | decrease in the MMP (ratio red/green JC-1 fluorescence) compared to untreated cells [6] | inhibition in the total ATP level relative to negative control (Acanthamoeba culbertsoni [7]) | plasma membrane permeability (SYTOX green fluorescence) (Acanthamoeba culbertsoni [8]) | chromatin condensation (Hoechst/PI staining) (Acanthamoeba culbertsoni [9]) | actin distribution (phalloidin-TRITC fluorescence) [10] | ROS production (CellROX Deep Red fluorescence) [11] | IC50 [12] | IC50 (A. griffini trophozoites) | IC50 (A. castellanii L10 cysts) | cytotoxicity compared between the two drugs [13] | solubility (Solubility (remark))
1 | CC(C)N1CCN(c2ccc(OCC3COC(Cn4cncn4)(c4ccc(Cl)cc4Cl)O3)cc2)CC1 (stereo not drawn) [Terconazole] | 20% | 80% | 223 proteins | 4.62 µM | 9.07 µM | 10.2 ± 2.01 µM | 2.24 ± 0.5 µM | highly reduced cell shape with lower fluorescence | 3.68 ± 0.61 µM | 50% | 62.5 ± 2.36% | statistically higher green fluorescence than the negative control | presence of intensely bright blue, fluorescent cells | lower fluorescence than the untreated cells | significantly higher fluorescence than the untreated cells |  |  |  |  | 
2 | C=CCNc1nc(NCC=C)nc(N2CCN(C(c3ccc(F)cc3)c3ccc(F)cc3)CC2)n1 [Almitrine] |  |  |  |  |  | 51.7 ± 2.13 µM |  |  |  |  |  |  |  |  |  | 32.08 ± 0.06 µM | 5.2 ± 0.4 µM | 8.76 ± 0.07 µM | lower cytotoxicity than Terconazole | low solubility
